Tests used:
p300 = target: T1, p300 (Homo sapiens, UniProt Q09472); experiment: Microfluidic mobility shift KAT assay, p300 with FITC-H4; format: biochemical
T1 sequence (Q09472 1195-1662): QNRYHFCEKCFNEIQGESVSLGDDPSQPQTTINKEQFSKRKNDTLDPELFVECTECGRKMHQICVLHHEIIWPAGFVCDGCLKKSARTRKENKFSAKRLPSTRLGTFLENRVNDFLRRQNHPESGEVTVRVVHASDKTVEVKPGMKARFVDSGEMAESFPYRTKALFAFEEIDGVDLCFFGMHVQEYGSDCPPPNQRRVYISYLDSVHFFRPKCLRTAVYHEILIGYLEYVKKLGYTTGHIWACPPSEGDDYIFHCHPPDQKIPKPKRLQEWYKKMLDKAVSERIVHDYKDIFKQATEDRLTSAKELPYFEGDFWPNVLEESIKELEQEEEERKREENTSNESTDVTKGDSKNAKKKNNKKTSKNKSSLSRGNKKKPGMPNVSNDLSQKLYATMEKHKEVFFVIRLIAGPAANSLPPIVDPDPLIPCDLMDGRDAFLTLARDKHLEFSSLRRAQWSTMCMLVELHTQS

Gcn5 [1] = target: T2, Gcn5 (Homo sapiens, UniProt Q92830); experiment: Microfluidic mobility shift KAT assay, Gcn5 with FITC-H3; format: biochemical; details: for inhibition of Gcn5 in pilot screen: acetyl-CoA 1 μM, unicate, hydroxylamine quench; for detergent sensitivity of Gcn5 inhibition: low (0.01%) compared to high (0.05%) Triton-X
Gcn5 [2] = target: T2, Gcn5; experiment: Real-time kinetic monitoring of Gcn5-catalyzed acetylation; format: biochemical; details: first 25 min vs last 25 min of 100 min; uninhibited enzyme = 1
HepG2 cells = experiment: Effect of garcinol on acetylation in HepG2 cells; format: cell-based
cell viability = experiment: Cell viability / toxicity; format: cell-based; details: at concentrations of ~60 μM

T2 sequence (Q92830 497-662): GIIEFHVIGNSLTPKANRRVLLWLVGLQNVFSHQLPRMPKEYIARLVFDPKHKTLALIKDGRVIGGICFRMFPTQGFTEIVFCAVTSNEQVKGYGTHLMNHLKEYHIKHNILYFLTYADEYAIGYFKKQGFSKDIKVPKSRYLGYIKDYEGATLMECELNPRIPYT

| Compound | inhibition of Gcn5 in pilot screen (Gcn5 [1]; compound 40 μM) | effect on p300 in pilot screen (in words) (p300; compound 40 μM) | detergent sensitivity of Gcn5 inhibition (Gcn5 [1]) | time dependence value (ratio of acetylation rates at early/late intervals) (Gcn5 [2]) | other results |
| --- | --- | --- | --- | --- | --- |
| CC(=O)N[C@@H](CCCCNC(=O)CSCCNC(=O)CCNC(=O)[C@H](O)C(C)(C)COP(=O)(O)OP(=O)(O)OC[C@H]1O[C@@H](n2cnc3c(N)ncnc32)[C@H](O)[C@@H]1OP(=O)(O)O)C(N)=O [Lys-CoA] | greater than 40% | – | – | – | inhibition of p300 in pilot screen (p300; compound 40 μM, acetyl-CoA 1 μM, unicate, hydroxylamine quench): greater than 40%; p300 versus Gcn5 selectivity in pilot screen (in words) (p300; compound 40 μM, p300 compared to Gcn5): inhibited p300 considerably more strongly than Gcn5 |
| CCCCCCCc1ccc(CCc2cccc(O)c2C(=O)O)cc1 [MG-149] | greater than 40% | – | – | – | – |
| C=C(C)[C@@H](CC=C(C)C)C[C@@]12C[C@@H](CC=C(C)C)C(C)(C)[C@@](CC=C(C)C)(C(=O)C(C(=O)c3ccc(O)c(O)c3)=C1O)C2=O [garcinol] | – | Selective inhibition of p300 | significantly greater inhibitory activity | > 1 | detergent sensitivity of p300 inhibition (p300; low (0.01%) compared to high (0.05%) Triton-X): significantly greater inhibitory activity; effect on Gcn5 in pilot screen (in words) (Gcn5 [1]; compound 40 μM): did not manifest as a Gcn5 hit; lowest concentration with effects on acetylation (HepG2 cells): ~ 25 μM; toxicity (cell viability): toxic |
| Cc1cc2c(C(C)C)c(O)c(O)c(C=O)c2c(O)c1-c1c(C)cc2c(C(C)C)c(O)c(O)c(C=O)c2c1O [gossypol] | – | – | detergent-sensitive inhibition | > 1 | inhibition at 40 µM (Gcn5 [1]; read-out: inhibition of Gcn5 in pilot screen): > 40% |
| O=C1c2c(O)ccc(O)c2C(=O)c2c(NCCNCCO)ccc(NCCNCCO)c21 [mitoxantrone] | – | selective p300 activation | – | – | – |

From article PMC6320249 (ACS chemical biology, 2015)
